Results reported in ChEMBL document CHEMBL4308854, “Novel indole-thiazolidinone conjugates: Design, synthesis and whole-cell phenotypic evaluation as a novel class of antimicrobial agents” (Eur J Med Chem, 2018).
≈ marks a conversion by molar mass, not a printed value. Calls of active or inactive are those of the source. The rule behind the calls is not given here.

Tests used:
Format in all cases: functional
[1] = system: Candida albicans; assay: Antifungal activity against Candida albicans RCMB 05036 assessed as diameter of zone inhibition after 48 hrs by agar well diffusion assay
[2] = system: Escherichia coli; assay: Antibacterial activity against Escherichia coli RCMB 010052 assessed as diameter of zone inhibition after 24 hrs by agar well diffusion assay
[3] = system: Pseudomonas aeruginosa; assay: Antibacterial activity against Pseudomonas aeruginosa RCMB 010043 after 24 hrs by serial dilution method; details: RCMB 010043, 24 h
[4] = system: Candida albicans; assay: Antifungal activity against Candida albicans RCMB 05036 after 24 hrs by serial dilution method; details: RCMB 05036, 24 h
[5] = system: Aspergillus fumigatus; assay: Antifungal activity against Aspergillus fumigatus RCMB 02568 assessed as diameter of zone inhibition after 48 hrs by agar well diffusion assay
[6] = system: Mycobacterium tuberculosis; assay: Antitubercular activity against Mycobacterium tuberculosis RCMB 010126 clinical isolate after 4 days by microplate alamar blue assay; details: for MIC: Mycobacterium tuberculosis, RCMB 010126, 96 h
[7] = system: Pseudomonas aeruginosa; assay: Antibacterial activity against Pseudomonas aeruginosa RCMB 010043 assessed as diameter of zone inhibition after 24 hrs by agar well diffusion assay
[8] = system: Staphylococcus aureus; assay: Antibacterial activity against Staphylococcus aureus RCMB 010028 after 24 hrs by serial dilution method; details: RCMB 010028, 24 h
[9] = system: Aspergillus fumigatus; assay: Antifungal activity against Aspergillus fumigatus RCMB 02568 after 24 hrs by serial dilution method; details: RCMB 02568, 24 h
[10] = system: Staphylococcus aureus; assay: Antibacterial activity against Staphylococcus aureus RCMB 010028 assessed as diameter of zone inhibition after 24 hrs by agar well diffusion assay
[11] = system: Escherichia coli; assay: Antibacterial activity against Escherichia coli RCMB 010052 after 24 hrs by serial dilution method; details: RCMB 010052, 24 h

SMILES	diameter of the inhibition zone (DIZ) [1]	diameter of the inhibition zone (DIZ) [2]	MIC [3] [µg/mL]	MIC [4] [µg/mL]	diameter of the inhibition zone (DIZ) [5]	inhibition (INH) [6] [%]	MIC [6] [µg/mL]	diameter of the inhibition zone (DIZ) [7]	MIC [8] [µg/mL]	MIC [9] [µg/mL]	diameter of the inhibition zone (DIZ) [10]	MIC [11] [µg/mL]	inhibition [6]
CCOC(=O)c1sc(/N=C2\NC(=O)/C(=C3/C(=O)Nc4ccc(F)cc43)S2)nc1C	22.1 mm	21.5 mm	3.9 (≈ 9.02 µM)	1.95 (≈ 4.51 µM)	21.3 mm	62.15	1.56 (≈ 3.61 µM)	20.2 mm	3.9 (≈ 9.02 µM)	1.95 (≈ 4.51 µM)	20.5 mm	1.95 (≈ 4.51 µM)	–
CCOC(=O)c1sc(/N=C2\NC(=O)/C(=C3/C(=O)Nc4ccc(Br)cc43)S2)nc1C	21.3 mm	21.1 mm	3.9 (≈ 7.9 µM)	1.95 (≈ 3.95 µM)	20.6 mm	86.31	1.56 (≈ 3.16 µM)	19.4 mm	3.9 (≈ 7.9 µM)	3.9 (≈ 7.9 µM)	20.1 mm	1.95 (≈ 3.95 µM)	–
CC(=O)c1sc(/N=C2\NC(=O)/C(=C3/C(=O)Nc4ccc(OC(F)(F)F)cc43)S2)nc1C	16.2 mm	14.2 mm	–	–	15.6 mm	41.58	12.5 (≈ 26.6 µM)	13.9 mm	–	–	14.3 mm	–	–
NNC(=O)c1ccncc1 [ISONIAZID]	–	–	–	–	–	–	0.78 (≈ 5.69 µM)	–	–	–	–	–	–
C[C@@H]1[C@H](O)[C@@H](C)/C=C/C=C/C=C/C=C/C=C/C=C/C=C/[C@H](O[C@@H]2O[C@H](C)[C@@H](O)[C@H](N)[C@@H]2O)C[C@@H]2O[C@](O)(C[C@@H](O)C[C@@H](O)[C@H](O)CC[C@@H](O)C[C@@H](O)CC(=O)O[C@H]1C)C[C@H](O)[C@H]2C(=O)O [AMPHOTERICIN B]	25.4 mm	–	–	0.98 (≈ 1.06 µM)	23.7 mm	–	–	–	–	1.95 (≈ 2.11 µM)	–	–	–
CCOC(=O)c1sc(/N=C2\NC(=O)/C(=C/c3cn(Cc4ccccc4)c4ccccc34)S2)nc1C	inactive	inactive	–	–	inactive	–	–	inactive	–	–	inactive	–	inactive
CC(=O)c1sc(/N=C2\NC(=O)/C(=C/c3cn(C)c4ccccc34)S2)nc1C	16.9 mm	15.9 mm	–	–	16.2 mm	34.32	–	14.2 mm	–	–	15.3 mm	–	–
CC(=O)c1sc(/N=C2\NC(=O)/C(=C3/C(=O)Nc4ccc(F)cc43)S2)nc1C	19.1 mm	20.6 mm	–	–	18.1 mm	43.26	12.5 (≈ 31 µM)	19.1 mm	–	–	18.6 mm	–	–
CC(=O)c1sc(/N=C2\NC(=O)/C(=C3/C(=O)Nc4ccc(Br)cc43)S2)nc1C	18.8 mm	20.4 mm	–	–	17.6 mm	43.21	12.5 (≈ 26.9 µM)	18.6 mm	–	–	18.5 mm	–	–
CCOC(=O)c1sc(/N=C2\NC(=O)/C(=C/c3cn(C)c4ccccc34)S2)nc1C	inactive	inactive	–	–	inactive	–	–	inactive	–	–	inactive	–	inactive
